One compound from patent publication US20250134889A1, “TARGETING IRE1 KINASE AND FMRP FOR PROPHYLAXIS, MANAGEMENT AND TREATMENT OF ATHEROSCLEROSIS” (CEDARS-SINAI MEDICAL CENTER, priority 2022, published 2025) can be followed below.

One series relates to BMDM. Put plainly: Cholesterol efflux assay. It is filed as cell-based, mouse. The note with it: AMG-18 5 μM 1 hour pre-treatment; APOA1 25 μg/ml or HDL 50 μg/ml acceptors, 6 hours. As for the experimental part:
FIGS. 2A-2M depict that FMRP deficiency enhances RCT while reducing foam cell formation in vivo. (Data are mean±SEM. Unpaired t-test with Welch's correction. * P≤0.05, ** P≤0.01, *** P≤0.001.) • 2A. Fmr1^+/+ and Fmr1^−/− mice were injected with AAV_PCSK9 and fed with 16 weeks of WD. Residential PM were stained with Oil Red O (ORO) and imaged (n=7; Scale bar=50 μm). • 2B. Apoe-/mice were fed with WD (12 weeks) and injected with vehicle (DMSO) or AMG-18 (30 mg/kg/day) in the last 4 weeks of WD. Residential PM were stained with ORO and imaged (n=5; Scale bar=50 μm). • 2C-2E. […] Macrophages were pre-loaded with fluorescently labeled cholesterol (16 hours) followed by incubation in efflux medium including APOA1 (25 μg/ml) or HDL (50 μg/ml) as acceptors for 6 hours. % Efflux was calculated as cholesterol signal in medium/cholesterol signal in medium and cell: Cholesterol efflux in (2F) Fmr1+/+ and Fmr1^−/− BMDM (n=4) and in (2G) BMDM that were pre-treated either with DMSO or AMG-18 (5 μM; 1 hour) (n=4). • 2H-2K. […] Protein lysates from macrophages used in FIG. 2C were analyzed by western blotting using specific antibodies for FMRP and β-Actin. • 2M. […]

In a further series the test system is BMDMs. Briefly: Apoptosis detection by flow cytometry (PI). The note with it: AMG-18 10 μM 1 hour pre-treatment, PA 12 hours. It is filed as cell-based, mouse. An excerpt: FIGS. 5K-5T depict: (Data are mean #SEM; Mann Whitney U test. * P≤0.05, ** P≤0.01, *** P≤0.001) • 5K. The ratio of mouse weight at the beginning of the experiment over the weight at the end of the experiment in FIG. 5A (n=12-13); and plasma measurements for glucose (n=12-13), cholesterol (n=12-13) and lipoproteins (n=4), respectively, from mice in FIG. 5A. • 5L. Abundance of B cells, T cells and monocytes in the peripheral blood as % of total CD45+ cells from the Fmr1^+/+ and Fmr1^−/− mice in FIG. 5A (n=12-13) . • 5M. Macrophage area was calculated from MOMA-2 (red)-stained aortic root sections as % of MOMA2^+ stained area to total plaque area (n=8; Scale bar=100 μm). • 5N. Apoptosis was calculated from the number of TUNEL^+ cells (green) in the MOMA-2-stained (red) plaque area (n=8; Scale bar=100 μm). • 5O. Fmr1^+/+ and Fmr1^−/− BMDMs or AMG-18 pre-treated cells (10 μM, 1 hour) were treated with PA ([…]) treatment for 12 hours and then stained with Propidium iodide (PI) (n=5). • 5P. % Smooth muscle actin (α-SMA) was calculated from aortic root sections stained with a-SMA (green) as % α-SMA^+ area to the total plaque area (n=8, Scale bar 100 μm). • 5Q. % collagen area was calculated from Masson's Trichrome staining as the percentage of collagen (blue) area in total plaque area (n=8; Scale bar=100 μm). • 5R. […]
A general note: A flow cytometer gives signals particle by particle.

As to `Cc1ccc2c(NS(=O)(=O)c3ccccc3Cl)cccc2c1Oc1ncccc1-c1ccnc(N[C@H]2CCCNC2)n1` [AMG-18], in the series with BMDM, the cholesterol efflux entry is reported as “enhanced”. In the series with BMDMs, the “apoptosis (PI staining)” value was “no significant change”.
